In ChEMBL document CHEMBL4043081, “Do spiroindolines have the potential to replace vesamicol as lead compound for the development of radioligands targeting the vesicular acetylcholine transporter?” (Bioorg Med Chem, 2017):
Activity calls are given as the source filed them. No cut-off for these calls is given here.

Assays:
[1] = target: T1, Vesicular acetylcholine transporter (Rattus norvegicus, UniProt Q62666); assay: Displacement of [3H]vesamicol from rat VAChT expressed in rat PC12 cell membranes incubated for 120 mins by liquid scintillation counting
T1 sequence (Q62666 whole entry): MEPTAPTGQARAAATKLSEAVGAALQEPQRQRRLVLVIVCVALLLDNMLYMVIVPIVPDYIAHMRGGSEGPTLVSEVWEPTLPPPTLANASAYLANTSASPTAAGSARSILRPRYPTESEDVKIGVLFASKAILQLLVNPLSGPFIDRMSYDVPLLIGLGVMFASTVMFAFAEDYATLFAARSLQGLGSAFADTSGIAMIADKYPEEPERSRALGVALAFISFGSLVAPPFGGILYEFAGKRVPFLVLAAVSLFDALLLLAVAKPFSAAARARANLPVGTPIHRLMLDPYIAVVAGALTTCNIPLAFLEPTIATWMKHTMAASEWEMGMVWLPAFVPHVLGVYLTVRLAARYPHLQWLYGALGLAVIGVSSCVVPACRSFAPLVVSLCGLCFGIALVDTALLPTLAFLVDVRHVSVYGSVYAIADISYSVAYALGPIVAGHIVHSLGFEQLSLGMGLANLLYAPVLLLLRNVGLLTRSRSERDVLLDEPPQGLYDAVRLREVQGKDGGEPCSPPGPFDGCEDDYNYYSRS

[2] = target: Sigma non-opioid intracellular receptor 1 (Rattus norvegicus, UniProt Q9R0C9); assay: Displacement of [3H]pentazocine from sigma1 receptor in Sprague-Dawley rat cortex membranes incubated for 120 mins by liquid scintillation counting; format: cell membranes
Sequence of Sigma non-opioid intracellular receptor 1 (Q9R0C9 whole entry): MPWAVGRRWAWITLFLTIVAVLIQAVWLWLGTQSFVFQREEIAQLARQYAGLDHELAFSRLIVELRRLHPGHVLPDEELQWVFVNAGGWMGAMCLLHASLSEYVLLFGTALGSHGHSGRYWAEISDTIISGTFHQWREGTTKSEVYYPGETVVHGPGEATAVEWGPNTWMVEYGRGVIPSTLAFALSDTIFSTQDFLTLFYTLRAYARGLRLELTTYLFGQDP

[3] = target: T2, Sigma intracellular receptor 2 (Rattus norvegicus, UniProt Q5U3Y7); assay: Displacement of [3H]pentazocine from sigma2 receptor in Sprague-Dawley rat liver membranes incubated for 120 mins by liquid scintillation counting; format: cell membranes, Membrane
T2 sequence (Q5U3Y7 whole entry): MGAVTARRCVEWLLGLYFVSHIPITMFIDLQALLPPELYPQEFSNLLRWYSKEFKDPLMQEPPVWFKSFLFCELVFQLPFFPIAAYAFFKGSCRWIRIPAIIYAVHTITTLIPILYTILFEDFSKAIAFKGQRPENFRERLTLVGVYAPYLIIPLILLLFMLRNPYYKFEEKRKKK

[4] = target: T3, Vesicular acetylcholine transporter (Rattus norvegicus) (UniProt Q62666); assay: Binding affinity to rat VAChT expressed in rat PC12 cell membranes assessed as induction of rightward shift of vesamicol binding curves at 100 and 100 nM incubated for 120 mins by liquid scintillation counting based [3H]vesamicol binding assay
T3 sequence (whole entry): T1 sequence (Q62666 whole entry)

Compound | Ki [1] [nM] | Ki [2] [nM] | Ki [3] [nM] | Activity [4]
O=C(c1ccc(Br)nc1)N1CC2(CCN(C/C=C/c3ccc(Cl)cc3)CC2)c2cc(F)ccc21 | 39.2 | 179 | 60.1 | 
O=C(c1ccnc(Cl)c1)N1CC2(CCN(C/C=C/c3ccc(Cl)cc3)CC2)c2cc(F)ccc21 | 153 | 137 | 1190 | Active
O=C(c1ccnc(F)c1)N1CC2(CCN(C/C=C/c3ccc(Cl)cc3)CC2)c2cc(F)ccc21 | 110 | 55.4 | 748 | 
O=C(c1ccc(F)nc1)N1CC2(CCN(C/C=C/c3ccc(Cl)cc3)CC2)c2cc(F)ccc21 | 376 | 282 | > 10000 | 
O=C(OCCF)N1CC2(CCN(C/C=C/c3ccc(Cl)cc3)CC2)c2cc(F)ccc21 | 328 | 44.1 | 1520 | 
O=C(c1ccc(F)cc1)N1CC2(CCN(C/C=C/c3ccc(Cl)cc3)CC2)c2cc(F)ccc21 | 243 | 293 | 1200 | 
